From patent publication US12031171B2, “Fatty acid esters against infections in fermentations” (PURAC BIOCHEM BV, priority 2016, dated 2024)

Key:
[1] = system: Clostridium perfringens ATCC 13124; type: cell-based; conditions: brain heart infusion broth, pH 6.0, 30° C., 0% oxygen
[2] = system: Clostridium pasteurianum JEG2; test: Mixed culture fermentation of Escherichia coli TG128 with Clostridium pasteurianum JEG2 (7 litre fermenters); type: cell-based; conditions: Fermenter 3, mixed culture
[3] = 0.05% (w/v) added, 25-35 hours, pH 6.5, 37° C.

CCCCCCCCCC(=O)OC(C)C(=O)O (stereo not shown) [Decanoyl-lactylate]
MIC value [1]: 0.04 % (w/v)

CCCCCCCCCCCC(=O)OC(C)C(=O)O (stereo not shown) [Dodecanoyl-lactylate]
MIC value [1]: 0.002 % (w/v)

CCCCCCCCCCCCCCCC(=O)OC(C)C(=O)O (stereo not shown) [Hexadecanoyl-lactylate]
MIC value [1]: 0.002 % (w/v)

CCCCCCCC(=O)OC(C)C(=O)[O-].[Na+] (stereo not shown) [Octanoyl-lactylate]
MIC value [1]: 0.05 % (w/v)

CCCCCCCCC=CCCCCCCCC(=O)OC(C)C(=O)O (stereo not shown) [Olacta, Octadecenoyl-lactylate]
MIC value [1]: 0.02 % (w/v)

CCCCCCCCCCCCCCOS(=O)(=O)[O-].[Na+] [Sodium tetradecyl sulfate, reference compound]
MIC value [1]: 0.001 % (w/v)

CCCCCCCCCCCCCC(=O)O [Tetradecanoic acid, reference compound]
MIC value [1]: >0.01 % (w/v)

CCCCCCCCCCCCCC(=O)OC(C)C(=O)O (stereo not shown) [Tetradecanoyl-lactylate, tetradecanoyl-lactylate]
MIC value [1]: 0.001 % (w/v)
results of Fermenter 3 compared with those at 0.05% (w/v) ([2]; 0.025% (w/v) added): Exactly the same results
endospore bearing cells, microscopic examination of the culture broth ([2]; 0.05% (w/v) added): no endospore bearing cells
foam and putrid smell produced by the fermenter ([2]; 0.05% (w/v) added): no foam or putrid smell
impurity profile of fermentation broth compared with the Escherichia coli TG128 standard fermentation (Fermenter 1) ([2]; 0.05% (w/v) added): no difference in impurity profile
performance of Fermenter 3 compared with Fermenter 1 (pure culture of Escherichia coli TG128) ([2]; 0.05% (w/v) added): in every respect similar
2-hydroxy butyric acid [2, 3]: <0.1 g/L
% enantiomeric excess: (R − S)/(R + S) [2, 3]: 99.3%
Acetic acid [2, 3]: 0.3 g/L
Benzoic acid [2, 3]: <0.3 g/L
Butyric acid [2, 3]: 0.1 g/L
Citric acid [2, 3]: <0.5 g/L
Ethanol [2, 3]: 0.08 g/L
Formic acid [2, 3]: <0.2 g/L
Fumaric acid [2, 3]: <0.2 g/L
Glycolic acid [2, 3]: <0.5 g/L
Maleic acid [2, 3]: <0.2 g/L
Malic acid [2, 3]: <0.5 g/L
Oxalic acid [2, 3]: <0.2 g/L
Propionic acid [2, 3]: <0.1 g/L
Pyruvic acid [2, 3]: <0.1 g/L
R-lactate [2, 3]: 81.8 g/L
S-lactate [2, 3]: 0.3 g/L
Sorbic acid [2, 3]: <0.1 g/L
Succinic acid [2, 3]: <0.1 g/L
glucose [2, 3]: 2.3 g/L
% enantiomeric excess: (R − S)/(R + S) ([2]; 0.05% (w/v) added, 25-35 hours, pH 6.5, 37° C., listed as tetradacanoyl-lactylate): ~100%
